Measurements reported in US20260364184A1, “COMPOUND BASED ON OXOISOINDOLINYL-SUBSTITUTED TETRAHYDROPYRIMIDINE-DIONE AND USE THEREOF” (GLUETACS THERAPEUTICS (SHANGHAI) CO., LTD., priority 2023, published 2026).

Target: T1, IRAK4 (Homo sapiens, UniProt Q9NWZ3)
T1 construct: expression of target proteins in cells; endogenous in cells
T1 sequence (Q9NWZ3 1-460): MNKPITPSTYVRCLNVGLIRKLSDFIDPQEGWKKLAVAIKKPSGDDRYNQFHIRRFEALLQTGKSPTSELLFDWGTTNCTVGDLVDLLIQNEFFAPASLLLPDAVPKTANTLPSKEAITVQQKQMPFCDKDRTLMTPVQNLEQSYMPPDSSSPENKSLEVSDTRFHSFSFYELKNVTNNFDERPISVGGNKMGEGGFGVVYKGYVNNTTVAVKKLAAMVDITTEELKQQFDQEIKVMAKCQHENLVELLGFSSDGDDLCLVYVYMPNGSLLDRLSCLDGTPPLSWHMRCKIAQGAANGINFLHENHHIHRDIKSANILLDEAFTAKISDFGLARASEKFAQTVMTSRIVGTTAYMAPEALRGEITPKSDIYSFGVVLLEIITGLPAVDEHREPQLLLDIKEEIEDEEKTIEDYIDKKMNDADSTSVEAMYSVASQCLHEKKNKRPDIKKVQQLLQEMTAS
Experiment: Western blot degradation of IRAK4
Format: cell-based
Conditions: hPBMC Cell; 24 hours
Procedure: Conventional Western blot assay was performed to evaluate the effects of the compounds of the present disclosure on the expression of target proteins in cells.
(1) Cell Seeding and Protein Harvesting: The selected cells were processed according to the cell seeding procedure and protein harvesting procedure in Table II-2.
(2) To the collected supernatant, 5×SDS sample loading buffer was added, followed by denaturation at 95 °C for 5 minutes. The denatured samples were then separated by SDS-PAGE electrophoresis on a polyacrylamide gel. Proteins were transferred to a nitrocellulose membrane (0.45 μm NC membrane), blocked with blocking buffer at room temperature for 1 hour, and subjected to antibody incubation and development procedures according to the antibody manufacturer's instructions (Cell Signaling Technology).
Half-Maximal Degradation Concentration value (the drug concentration required for degrading proteins by 50%, abbreviated as DC50) reads method: comparing the grayscale values of Western blot bands from drug-treated samples with those from blank DMSO-treated controls, and identifying the drug concentration range at which the grayscale value is half that of the DMSO-treated control bands.
DC50 values can be calculated using ImageJ software to measure grayscale values of Western blot bands from drug-treated samples. The concentration-response curve is fitted to estimate the drug concentration corresponding to half the grayscale value.
Target protein remaining (%) refers to the percentage of target protein remaining in cells after treatment with protein degrader compounds.
Calculation method for target protein remaining (%): Use ImageJ software to measure grayscale values of Western blot bands from drug (protein degrader)-treated samples. The grayscale value of drug-treated bands is divided by that of internal control protein bands, and the resulting quotient is normalized to obtain the relative percentage of remaining target protein after protein degrader treatment.
Target protein degradation rate (%)=1−target protein remaining (%).

Compound | Degradation of substrate protein IRAK4 (substrate protein remaining %)
COc1cc2nn(C3CCN(CC4CCN(c5ccc6c(c5)C(=O)N(N5CCC(=O)NC5=O)C6=O)CC4)CC3)cc2cc1NC(=O)c1cccc(C(F)(F)F)c1 [GT-04877, N-(2-(1-((1-(2-(2,4-dioxotetrahydropyrimidin-1(2H)-yl)-1,3-dioxoisoindolin-5-yl)piperidin-4-yl)methyl)piperidin-4-yl)-6-methoxy-2H-indazol-5-yl)-3-(trifluoromethyl)benzamide] | A (0%≤substrate protein remaining %≤80%)
COc1ccc2cn(C3CCN(Cc4ccc5c(c4)CN(N4CCC(=O)NC4=O)C5=O)CC3)nc2c1NC(=O)c1cccc(C(F)(F)F)c1 [GT-04884, N-(2-(1-((2-(2,4-dioxotetrahydropyrimidin-1(2H)-yl)-1-oxoisoindolin-5-yl)methyl)piperidin-4-yl)-6-methoxy-2H-indazol-7-yl)-3-(trifluoromethyl)benzamide] | A (0%≤substrate protein remaining %≤80%)
COc1ccc2cn(C3CCN(CC4CCN(c5ccc6c(c5)C(=O)N(N5CCC(=O)NC5=O)C6=O)CC4)CC3)nc2c1NC(=O)c1cccc(C(F)(F)F)c1 [GT-04885, N-(2-(1-((1-(2-(2,4-dioxotetrahydropyrimidin-1(2H)-yl)-1,3-dioxoisoindolin-5-yl)piperidin-4-yl)methyl)piperidin-4-yl)-6-methoxy-2H-indazol-7-yl)-3-(trifluoromethyl)benzamide] | A (0%≤substrate protein remaining %≤80%)
O=C1CCN(N2C(=O)c3ccc(N4CCC(CN5CCN(c6ccc7c(c6)nc(NC(=O)c6cccc(C(F)(F)F)c6)n7[C@H]6CC[C@@H](CO)CC6)CC5)CC4)cc3C2=O)C(=O)N1 [GT-05055, N-(5-(4-((1-(2-(2,4-dioxotetrahydropyrimidin-1(2H)-yl)-1,3-dioxoisoindolin-5-yl)piperidin-4-yl)methyl)piperazin-1-yl)-1-((1s,4s)-4-(hydroxymethyl)cyclohexyl)-1H-benzo[d]imidazol-2-yl)-3-(trifluoromethyl)benzamide] | A (0%≤substrate protein remaining %≤80%)
O=C1CCN(N2C(=O)c3ccc(N4CCC(CN5CCC(n6cc(NC(=O)c7cnn8ccc(N9C[C@H]%10C[C@@H]9CO%10)nc78)c(C(F)F)n6)CC5)CC4)cc3C2=O)C(=O)N1 [GT-05056, 5-((1R,4R)-2-oxa-5-azabicyclo[2.2.1]heptan-5-yl)-N-(3-(difluoromethyl)-1-(1-((1-(2-(2,4-dioxotetrahydropyrimidin-1(2H)-yl)-1,3-dioxoisoindolin-5-yl)piperidin-4-yl)methyl)piperidin-4-yl)-1H-pyrazol-4-yl)pyrazolo[1,5-a]pyrimidine-3-carboxamide] | A (0%≤substrate protein remaining %≤80%)
COc1cc2nn(C3CCN(Cc4ccc5c(c4)C(=O)N(N4CCC(=O)NC4=O)C5=O)CC3)cc2cc1NC(=O)c1cccc(C(F)(F)F)c1 [GT-05078, N-(2-(1-((2-(2,4-dioxotetrahydropyrimidin-1(2H)-yl)-1,3-dioxoisoindolin-5-yl)methyl)piperidin-4-yl)-6-methoxy-2H-indazol-5-yl)-3-(trifluoromethyl)benzamide] | A (0%≤substrate protein remaining %≤80%)
O=C1CCN(N2C(=O)c3ccc(N4CCC(N5CCN(C[C@H]6CC[C@H](n7cc(NC(=O)c8cnn9ccc(N%10C[C@H]%11C[C@@H]%10CO%11)nc89)c(C(F)F)n7)CC6)CC5)CC4)cc3C2=O)C(=O)N1 [GT-05122, 5-((1R,4R)-2-oxa-5-azabicyclo[2.2.1]heptan-5-yl)-N-(3-(difluoromethyl)-1-((1r,4R)-4-((4-(1-(2-(2,4-dioxotetrahydropyrimidin-1(2H)-yl)-1,3-dioxoisoindolin-5-yl)piperidin-4-yl)piperazin-1-yl)methyl)cyclohexyl)-1H-pyrazol-4-yl)pyrazolo[1,5-a]pyrimidine-3-carboxamide] | A (0%≤substrate protein remaining %≤80%)
O=C1CCN(N2C(=O)c3ccc(N4CCC(N5CCN(C[C@H]6CC[C@H](n7cc(NC(=O)c8cnn9ccc(N%10C[C@H]%11C[C@@H]%10CO%11)nc89)c(C(F)F)n7)CC6)CC5)C(F)(F)C4)cc3C2=O)C(=O)N1 (some centres unmarked) [GT-05123] | A (0%≤substrate protein remaining %≤80%)
O=C1CCN(N2C(=O)c3ccc(N4CCC(N5CCC(CN6CCC(n7cc(NC(=O)c8coc(-c9ccnc(NCC%10CC%10)c9)n8)c(C(F)F)n7)CC6)CC5)CC4)cc3C2=O)C(=O)N1 [GT-05133, 2-(2-((cyclopropylmethyl)amino)pyridin-4-yl)-N-(3-(difluoromethyl)-1-(1-((1′-(2-(2,4-dioxotetrahydropyrimidin-1(2H)-yl)-1,3-dioxoisoindolin-5-yl)-[1,4′-bipiperidin]-4-yl)methyl)piperidin-4-yl)-1H-pyrazol-4-yl) oxazole-4-carboxamide] | A (0%≤substrate protein remaining %≤80%)
O=C1CCN(N2C(=O)c3ccc(N4CCC(N5CCC(CN6CCC(n7cc(NC(=O)c8coc(-c9ccnc(NCC(F)(F)F)c9)n8)c(C(F)F)n7)CC6)CC5)CC4)cc3C2=O)C(=O)N1 [GT-05144, N-(3-(difluoromethyl)-1-(1-((1′-(2-(2,4-dioxotetrahydropyrimidin-1(2H)-yl)-1,3-dioxoisoindolin-5-yl)-[1,4′-bipiperidin]-4-yl)methyl)piperidin-4-yl)-1H-pyrazol-4-yl)-2-(2-((2,2,2-trifluoroethyl)amino)pyridin-4-yl) oxazole-4-carboxamide] | A (0%≤substrate protein remaining %≤80%)
CC(C)(O)c1cc2nn(C3CCN(CC4CCN(c5ccc6c(c5)C(=O)N(N5CCC(=O)NC5=O)C6=O)CC4)CC3)cc2cc1NC(=O)c1cccc(C(F)(F)F)n1 [GT-05220, N-(2-(1-((1-(2-(2,4-dioxotetrahydropyrimidin-1(2H)-yl)-1,3-dioxoisoindolin-5-yl)piperidin-4-yl)methyl)piperidin-4-yl)-6-(2-hydroxypropan-2-yl)-2H-indazol-5-yl)-6-(trifluoromethyl) picolinamide] | A (0%≤substrate protein remaining %≤80%)
CC(C)(O)c1cc2nn(C3CCN(CC4CCN(c5cccc6c5C(=O)N(N5CCC(=O)NC5=O)C6=O)CC4)CC3)cc2cc1NC(=O)c1cccc(C(F)(F)F)n1 [GT-05221, N-(2-(1-((1-(2-(2,4-dioxotetrahydropyrimidin-1(2H)-yl)-1,3-dioxoisoindolin-4-yl)piperidin-4-yl)methyl)piperidin-4-yl)-6-(2-hydroxypropan-2-yl)-2H-indazol-5-yl)-6-(trifluoromethyl) picolinamide] | A (0%≤substrate protein remaining %≤80%)
O=C1CCN(N2C(=O)c3ccc(N4C5CCC4CN(C[C@H]4CC[C@H](n6cc(NC(=O)c7cnn8ccc(N9C[C@H]%10C[C@@H]9CO%10)nc78)c(C(F)F)n6)CC4)C5)cc3C2=O)C(=O)N1 [GT-05240, 5-((1R,4R)-2-oxa-5-azabicyclo[2.2.1]heptan-5-yl)-N-(3-(difluoromethyl)-1-((1r,4R)-4-((8-(2-(2,4-dioxotetrahydropyrimidin-1(2H)-yl)-1,3-dioxoisoindolin-5-yl)-3,8-diazabicyclo[3.2.1]octan-3-yl)methyl)cyclohexyl)-1H-pyrazol-4-yl)pyrazolo[1,5-a]pyrimidine-3-carboxamide] | A (0%≤substrate protein remaining %≤80%)
O=C1CCN(N2C(=O)c3cccc(N4CCN(C[C@H]5CC[C@H](n6cc(NC(=O)c7cnn8ccc(N9C[C@H]%10C[C@@H]9CO%10)nc78)c(C(F)F)n6)CC5)CC4)c3C2=O)C(=O)N1 [GT-05241, 5-((1R,4R)-2-oxa-5-azabicyclo[2.2.1]heptan-5-yl)-N-(3-(difluoromethyl)-1-((1r,4R)-4-((4-(2-(2,4-dioxotetrahydropyrimidin-1(2H)-yl)-1,3-dioxoisoindolin-4-yl)piperazin-1-yl)methyl)cyclohexyl)-1H-pyrazol-4-yl)pyrazolo[1,5-a]pyrimidine-3-carboxamide] | A (0%≤substrate protein remaining %≤80%)
